Read-outs that look alike come from different tables or passages of the source.
Target: Human Full Length PARG (Homo sapiens (Human), UniProt Q86W56)
Assay: PARG enzyme assay (TR-FRET)
Type: biochemical
[1] = read-out: PARG Biochem IC50 Geomean

Human Full Length PARG, sequence (Q86W56 whole entry): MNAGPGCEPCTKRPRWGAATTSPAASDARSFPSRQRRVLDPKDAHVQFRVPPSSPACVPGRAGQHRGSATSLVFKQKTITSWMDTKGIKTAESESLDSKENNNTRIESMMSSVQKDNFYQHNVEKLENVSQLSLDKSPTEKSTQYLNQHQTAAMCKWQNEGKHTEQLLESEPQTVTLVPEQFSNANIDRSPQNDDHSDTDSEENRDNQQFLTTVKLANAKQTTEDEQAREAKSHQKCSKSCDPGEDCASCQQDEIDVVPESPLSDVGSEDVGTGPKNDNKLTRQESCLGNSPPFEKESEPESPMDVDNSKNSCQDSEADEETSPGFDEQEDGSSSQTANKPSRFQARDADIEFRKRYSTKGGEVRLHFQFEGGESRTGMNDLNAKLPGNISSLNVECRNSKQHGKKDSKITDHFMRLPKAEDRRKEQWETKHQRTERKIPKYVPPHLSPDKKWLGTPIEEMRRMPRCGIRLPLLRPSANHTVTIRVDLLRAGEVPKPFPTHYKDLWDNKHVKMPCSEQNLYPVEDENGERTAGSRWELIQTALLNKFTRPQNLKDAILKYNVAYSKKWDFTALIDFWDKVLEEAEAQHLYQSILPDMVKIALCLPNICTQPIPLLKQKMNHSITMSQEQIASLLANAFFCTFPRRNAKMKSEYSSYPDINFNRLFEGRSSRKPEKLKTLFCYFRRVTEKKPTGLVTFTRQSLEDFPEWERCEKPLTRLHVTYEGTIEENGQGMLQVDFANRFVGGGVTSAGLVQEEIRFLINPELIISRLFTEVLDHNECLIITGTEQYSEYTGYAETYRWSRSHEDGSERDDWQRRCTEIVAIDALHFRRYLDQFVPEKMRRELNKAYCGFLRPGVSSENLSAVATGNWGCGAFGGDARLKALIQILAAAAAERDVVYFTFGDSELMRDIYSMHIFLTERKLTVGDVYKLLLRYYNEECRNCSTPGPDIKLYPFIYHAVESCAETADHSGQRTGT

Compound	IC50 [1]	IC50 (read-out: PARG Biochem IC50)
Cc1cc(Cn2c(=O)c3cc(S(=O)(=O)NC4(C)CC4)ccc3n(CCN3CCCC3)c2=O)on1 [Example 248]	521 nM	–
COc1ccccc1Cn1c(=O)n(C)c(=O)c2cc(S(=O)(=O)NC3(C)CC3)ccc21 [Example 59]	3240 nM	–
Cn1cc(-c2ccc(F)cc2)c2ccc(S(=O)(=O)NC3(C)CC3)cc2c1=O [Example 255, 4-(4-Fluorophenyl)-2-methyl-N-(1-methylcyclopropyl)-1-oxo-isoquinoline-7-sulfonamide]	8520 nM	–
Cc1cc(Cn2cc(C)c3ccc(S(=O)(=O)NC4(C)CC4)cc3c2=O)on1 [Example 256, 4-Methyl-N-(1-methylcyclopropyl)-2-[(3-methylisoxazol-5-yl)methyl]-1-oxo-isoquinoline-7-sulfonamide]	1280 nM	–
Cc1cc(Cn2c(=O)n(C3CC3)c(=O)c3cc(S(=O)(=O)NC4(C)CC4)ccc32)n(C)n1 [Example 241]	642 nM	–
Cc1cc(Cn2c(=O)c3cc(S(=O)(=O)NC4(C)CC4)ccc3n(C)c2=O)n(C)n1 [Example 123]	2420 nM	–
Cc1cc(Cn2nc(C(=O)O)c3ccc(S(=O)(=O)NC4(C)CC4)cc3c2=O)on1 [Example 302, 6-(N-(1-Methylcyclopropyl)sulfamoyl)-3-((3-methylisoxazol-5-yl)methyl)-4-oxo-3,4-dihydrophthalazine-1-carboxylic acid]	6720 nM	–
Cc1ccccc1Cn1c(=O)n(C)c(=O)c2cc(S(=O)(=O)NC3(C)CC3)ccc21 [Example 56]	3340 nM	–
Cn1cncc1Cn1c(=O)c2cc(S(=O)(=O)NC3(C)CC3)ccc2n(C)c1=O [Example 154]	3310 nM	–
CCn1c(=O)c2cc(S(=O)(=O)NC3(C)CC3)ccc2n(CCOC)c1=O [Example 17]	1570 nM	–
Cc1noc(Cn2c(=O)c3cc(S(=O)(=O)NC4(C)CC4)ccc3n(C)c2=O)n1 [Example 190]	3180 nM	–
Cn1c(=O)n(Cc2cnn(CC3CC3)c2)c(=O)c2cc(S(=O)(=O)NC3(C)CC3)ccc21 [Example 218]	681 nM	–
CC1(NS(=O)(=O)c2ccc3[nH]c(=O)n(CC(N)=O)c(=O)c3c2)CC1 [Example 223, 2-[6-[(1-Methylcyclopropyl)sulfamoyl]-2,4-dioxo-1H-quinazolin-3-yl]acetamide]	7470 nM	–
COCCn1c(=O)n(Cc2cc(C)no2)c(=O)c2cc(S(=O)(=O)NC3(CF)CC3)ccc21 [Example 527, N-[1-(Fluoromethyl)cyclopropyl]-1-(2-methoxyethyl)-3-[(3-methylisoxazol-5-yl)methyl]-2,4-dioxo-quinazoline-6-sulfonamide]	–	208 nM
Cn1c(=O)c2cc(S(=O)(=O)NC3(C)CC3)ccc2n(Cc2ccncc2)c1=O [Example 84]	2370 nM	–
Cn1c(=O)n(Cc2cncs2)c(=O)c2cc(S(=O)(=O)NC3(C)CC3)ccc21 [Example 147]	1210 nM	–
Cn1c(=O)c2cc(S(=O)(=O)NC3(C)CC3)ccc2n(CC2(C)COC2)c1=O [Example 42]	2450 nM	–
Cc1cc(Cn2cc(Cl)c3ccc(S(=O)(=O)NC4(C)CC4)cc3c2=O)on1 [Example 209, 4-Chloro-N-(1-methylcyclopropyl)-2-[(3-methylisoxazol-5-yl)methyl]-1-oxo-isoquinoline-7-sulfonamide]	1640 nM	–
Cn1c(=O)n(CC#N)c(=O)c2cc(S(=O)(=O)NC3(C)CC3)ccc21 [Example 31]	1140 nM	–
Cc1ncoc1Cn1c(=O)c2cc(S(=O)(=O)NC3(C)CC3)ccc2n(C)c1=O [Example 188]	1840 nM	–
Cn1c(=O)n(CC(=O)c2ccc(C#N)cc2)c(=O)c2cc(S(=O)(=O)NC3(C)CC3)ccc21 [Example 531, 3-[2-(4-Cyanophenyl)-2-oxo-ethyl]-1-methyl-N-(1-methylcyclopropyl)-2,4-dioxo-quinazoline-6-sulfonamide]	–	3270 nM
Cn1c(=O)n(Cc2cnc(Cl)s2)c(=O)c2cc(S(=O)(=O)NC3(C)CC3)ccc21 [Example 144]	1600 nM	–
Cn1c(=O)c2cc(S(=O)(=O)NC3(C)CC3)cc(F)c2n(C)c1=O [Example 225]	7490 nM	–

— patent US10239843B2 (CANCER RESEARCH TECHNOLOGY LIMITED, priority 2014, dated 2019)
